Among the data in US20230159546A1, “NOVEL SPIROPYRROLIDINE DERIVED ANTIVIRAL AGENTS” (Enanta Pharmaceuticals, Inc., priority 2021, published 2023) are EC50 and IC50 values, retold here.

pEC50, pIC50: −log10 of the molar value. Like-named read-outs stand apart in the source and are kept apart here.

The test system of assay [1] is 229E human corona virus (hCoV). Nature of the assay: 229E live virus assay (CPE, ATPlite readout, MRC-5 cells). The assay is classed as cell-based, hCoV-229E. The following applies: Human coronavirus 229E, MRC5, 144 h, read-out: 229E EC50. On the technique in general: In ATP-based viability assays light output follows the ATP content of the culture.
Assay [2] deals with SARS-CoV-2 3CL-protease (Severe acute respiratory syndrome coronavirus 2, UniProt P0DTD1). Nature of the assay: SARS-CoV-2 3C-like (3CL) protease fluorescence assay (FRET). The assay is classed as biochemical. The following applies: recombinant SARS-CoV-2 3CL-protease 10 nM, 30 min preincubation at RT, duplicate; read-out: FRET IC50.
Setting [3] is: MRC-5 cells, MOI 0.05, 6 days at 34° C., ATPlite, duplicate.

For `Cc1ccc(S(=O)(=O)N2C[C@]3(C[C@H]2C#N)C(=O)Nc2ccccc23)cc1` [Example 32], the negative logarithm of the EC50 (pEC50) in assay [1] was less than 6.00. Further, the pIC50 in assay [2] is less than 6.00.
Consider `N#C[C@@H]1C[C@@]2(CN1C(=O)c1ccccc1)C(=O)Nc1ccccc12` [Example 30], for which the pEC50 in assay [1] (setting [3]) is 6.00 to 7.00. In assay [2], the pIC50 was less than 6.00.
With `CC(C)CC(C(=O)Nc1cccc(-c2ccccc2)c1)C(=O)N1C[C@]2(C[C@H]1C#N)C(=O)Nc1ccccc12` (stereo partly shown) [Example 13], the pEC50 in assay [1] (setting [3]) is less than 6.00. Further, the pIC50 in assay [2] was less than 6.00.
Turning to `N#C[C@@H]1C[C@@]2(CN1C(=O)C(Cc1ccccc1)C(=O)Nc1cc(F)cc(F)c1)C(=O)Nc1ccccc12` (stereo partly shown) [Example 23], the pEC50 in assay [1] (setting [3]) is less than 6.00. Moreover, the pIC50 in assay [2] was 6.00 to 7.00.
In the same order, the values of `CN(C(=O)C(Cc1ccccc1)C(=O)N1C[C@]2(C[C@H]1C#N)C(=O)Nc1ccccc12)c1ccccc1` (stereo partly shown) [Example 22] are less than 6.00 and less than 6.00.
As to `Cc1nc(-c2ccc(S(=O)(=O)N3C[C@]4(C[C@H]3C#N)C(=O)Nc3ccccc34)s2)cs1` [Example 34], the negative logarithm of the EC50 (pEC50) in assay [1] (setting [3]) was less than 6.00. In assay [2], the pIC50 is less than 6.00.
As for `CC(C(=O)N(C)c1ccccc1)C(=O)N1C[C@]2(C[C@H]1C#N)C(=O)Nc1ccccc12` (stereo partly shown) [Example 16], the pEC50 in assay [1] (setting [3]) was 6.00 to 7.00. Further, in assay [2], the pIC50 is less than 6.00.
For `CC(C)CC(F)(C(=O)Nc1cc(F)cc(F)c1)C(=O)N1C[C@]2(C[C@H]1C#N)C(=O)Nc1ccccc12` (stereo partly shown) [Example 20] the same measures were less than 6.00 and less than 6.00.
With `CC(C)C[C@@H](C(=O)Nc1cc(F)cc(F)c1)C(=O)N1C[C@]2(C[C@H]1C#N)C(=O)Nc1ccccc12` (single isomer, unassigned) [Example 11], in assay [1] (setting [3]), the negative logarithm of the EC50 (pEC50) is less than 6.00. Besides, the pIC50 in assay [2] is less than 6.00.
For the compound `N#C[C@@H]1C[C@@]2(CN1C(=O)NC1CCCCC1)C(=O)Nc1ccccc12` [Example 38], the pEC50 in assay [1] (setting [3]) is more than 7.00. Besides, the pIC50 in assay [2] was less than 6.00.
In the case of `N#C[C@@H]1C[C@@]2(CN1C(=O)c1ccc3cccnc3c1)C(=O)Nc1ccccc12` [Example 44], the pEC50 in assay [1] (setting [3]) is less than 6.00. Besides, in assay [2], the negative logarithm of the IC50 (pIC50) was less than 6.00.
Consider `CC(C(=O)Nc1cc(F)cc(F)c1)C(=O)N1C[C@]2(C[C@H]1C#N)C(=O)Nc1ccccc12` (stereo partly shown) [Example 17], for which, in assay [1] (setting [3]), the pEC50 was less than 6.00. Further, in assay [2], the negative logarithm of the IC50 (pIC50) was less than 6.00.
`N#C[C@@H]1C[C@@]2(CN1C(=O)[C@H](Cc1ccccc1)C(=O)Nc1cc(F)cc(F)c1)C(=O)Nc1ccccc12` [Example 26]: in assay [1] (setting [3]), the negative-log EC50 (pEC50) was less than 6.00. Moreover, the negative-log IC50 (pIC50) in assay [2] is less than 6.00.
Regarding `CC(C)CC(C(=O)Nc1ccc(-c2ccccc2)cc1)C(=O)N1C[C@]2(C[C@H]1C#N)C(=O)Nc1ccccc12` (stereo partly shown) [Example 14], the negative logarithm of the EC50 (pEC50) in assay [1] (setting [3]) was less than 6.00. Besides, the pIC50 in assay [2] was less than 6.00.
Turning to `CC(C)CC(C(=O)Nc1ccc2ccccc2c1)C(=O)N1C[C@]2(C[C@H]1C#N)C(=O)Nc1ccccc12` (stereo partly shown) [Example 5], the pEC50 in assay [1] (setting [3]) is 6.00 to 7.00. Moreover, the pIC50 in assay [2] is less than 6.00.
In the case of `CC(C)(C)C(=O)N1C[C@]2(C[C@H]1C#N)C(=O)Nc1ccccc12` [Example 41], the pEC50 in assay [1] (setting [3]) is less than 6.00. The pIC50 in assay [2] was less than 6.00.
As to `N#C[C@@H]1C[C@@]2(CN1C(=O)NCc1ccccc1)C(=O)Nc1ccccc12` [Example 51], the negative logarithm of the EC50 (pEC50) in assay [1] (setting [3]) was 6.00 to 7.00. The pIC50 in assay [2] is less than 6.00.
For `N#C[C@@H]1C[C@@]2(CN1C(=O)C(Cc1ccccc1)C(=O)Nc1ccccc1)C(=O)Nc1ccccc12` (stereo partly shown) [Example 21] the same measures were less than 6.00 and 6.00 to 7.00.
On to `N#C[C@@H]1C[C@@]2(CN1C(=O)C1CCCCC1)C(=O)Nc1ccccc12` [Example 43], for which the negative-log EC50 (pEC50) in assay [1] (setting [3]) was less than 6.00. Besides, in assay [2], the pIC50 is less than 6.00.
On to `CC(C)CC(C(=O)Nc1ccccc1)C(=O)N1C[C@]2(C[C@H]1C#N)C(=O)Nc1ccccc12` (stereo partly shown) [Example 1], for which the pEC50 in assay [1] is less than 6.00. Also, in assay [2], the pIC50 is less than 6.00.
On to `CC(C)NC(=O)N1C[C@]2(C[C@H]1C#N)C(=O)Nc1ccccc12` [Example 47], for which the negative logarithm of the EC50 (pEC50) in assay [1] (setting [3]) is less than 6.00. Moreover, the pIC50 in assay [2] is less than 6.00.
`CC(C(=O)Nc1ccccc1)C(=O)N1C[C@]2(C[C@H]1C#N)C(=O)Nc1ccccc12` (stereo partly shown) [Example 15]: in assay [1] (setting [3]), the negative-log EC50 (pEC50) was less than 6.00. The pIC50 in assay [2] was less than 6.00.
On to `CC(C)CC(F)(C(=O)Nc1ccccc1)C(=O)N1C[C@]2(C[C@H]1C#N)C(=O)Nc1ccccc12` (stereo partly shown) [Example 18], for which the pEC50 in assay [1] (setting [3]) is less than 6.00. Besides, the pIC50 in assay [2] was less than 6.00.
`CC(C)CC(C(=O)Nc1cc2ccccc2[nH]1)C(=O)N1C[C@]2(C[C@H]1C#N)C(=O)Nc1ccccc12` (stereo partly shown) [Example 4]: the pEC50 in assay [1] (setting [3]) is less than 6.00. Further, the negative-log IC50 (pIC50) in assay [2] is less than 6.00.
With `N#C[C@@H]1C[C@@]2(CN1C(=O)Nc1ccc3cccnc3c1)C(=O)Nc1ccccc12` [Example 52], the pEC50 in assay [1] (setting [3]) is less than 6.00. In addition, the negative logarithm of the IC50 (pIC50) in assay [2] was less than 6.00.
With `N#C[C@@H]1C[C@@]2(CN1C(=O)C(F)(Cc1ccccc1)C(=O)Nc1ccccc1)C(=O)Nc1ccccc12` (stereo partly shown) [Example 27], the negative logarithm of the EC50 (pEC50) in assay [1] (setting [3]) was less than 6.00. Further, the negative-log IC50 (pIC50) in assay [2] was less than 6.00.
`N#C[C@@H]1C[C@@]2(CN1C(=O)Nc1ccccc1)C(=O)Nc1ccccc12` [Example 50]: in assay [1] (setting [3]), the pEC50 was less than 6.00. The pIC50 in assay [2] was less than 6.00.
In the case of `N#C[C@@H]1C[C@@]2(CN1CC1CCCCC1)C(=O)Nc1ccccc12` [Example 39], in assay [1] (setting [3]), the pEC50 was less than 6.00. For the same compound, the pIC50 in assay [2] is less than 6.00.
As for `N#C[C@@H]1C[C@@]2(CN1C(=O)c1ccc(-c3ccccc3)cc1)C(=O)Nc1ccccc12` [Example 36], the negative logarithm of the EC50 (pEC50) in assay [1] (setting [3]) is less than 6.00. Further, the pIC50 in assay [2] is less than 6.00.
For the compound `N#C[C@@H]1C[C@@]2(CN1C(=O)NCc1nccs1)C(=O)Nc1ccccc12` [Example 53], the pEC50 in assay [1] (setting [3]) is less than 6.00. The pIC50 in assay [2] is less than 6.00.
As for `CC(C)CC(F)(C(=O)N(C)c1ccccc1)C(=O)N1C[C@]2(C[C@H]1C#N)C(=O)Nc1ccccc12` (stereo partly shown) [Example 19], the pEC50 in assay [1] (setting [3]) was less than 6.00. For the same compound, the negative-log IC50 (pIC50) in assay [2] is less than 6.00.
On to `CC(C)CC(C(=O)Nc1cc(F)ccc1F)C(=O)N1C[C@]2(C[C@H]1C#N)C(=O)Nc1ccccc12` (stereo partly shown) [Example 6], for which, in assay [1] (setting [3]), the negative-log EC50 (pEC50) is 6.00 to 7.00. The pIC50 in assay [2] is less than 6.00.
In the same order, the values of `CC(C)CC(C(=O)N1C[C@]2(C[C@H]1C#N)C(=O)Nc1ccccc12)c1ccc(NC(=O)c2cc3c(F)cccc3[nH]2)cn1` (stereo partly shown) [Example 31] are less than 6.00 and less than 6.00.
In the case of `CC(C)CC(C(=O)Nc1ccc(F)cc1Cl)C(=O)N1C[C@]2(C[C@H]1C#N)C(=O)Nc1ccccc12` (stereo partly shown) [Example 9], the pEC50 in assay [1] (setting [3]) was less than 6.00. Moreover, the pIC50 in assay [2] was less than 6.00.
In the case of `N#C[C@@H]1C[C@@]2(CN1C(=O)NC1CCCC1)C(=O)Nc1ccccc12` [Example 49], in assay [1] (setting [3]), the pEC50 is 6.00 to 7.00. Besides, in assay [2], the pIC50 is less than 6.00.
In the same order, the values of `CC(C)CC(C(=O)Nc1c(F)cccc1Cl)C(=O)N1C[C@]2(C[C@H]1C#N)C(=O)Nc1ccccc12` (stereo partly shown) [Example 10] are less than 6.00 and less than 6.00.
Consider `CC(C)CC(C(=O)Nc1ccc(F)cc1F)C(=O)N1C[C@]2(C[C@H]1C#N)C(=O)Nc1ccccc12` (stereo partly shown) [Example 8], for which, in assay [1] (setting [3]), the pEC50 was less than 6.00. The pIC50 in assay [2] was less than 6.00.
For `N#C[C@@H]1C[C@@]2(CN1C(=O)C(F)(Cc1ccccc1)C(=O)Nc1cc(F)cc(F)c1)C(=O)Nc1ccccc12` (stereo partly shown) [Example 28], in assay [1] (setting [3]), the negative logarithm of the EC50 (pEC50) is less than 6.00. Besides, the pIC50 in assay [2] was less than 6.00.

As usually defined, the pEC50 is the negative decadic logarithm of the EC50, by convention in mol/L. Broadly, the pIC50 is the negative decadic logarithm of the IC50, by convention in mol/L.
